This note sets out measurements from paper PMC10222454, “Characterization of the Molecular Diversity and Degranulation Activity of Mastoparan Family Peptides from Wasp Venoms” (Toxins, 2023).

Ends that are not written are not given here. Where only a bound is given, the exact number is not on record here.

The test system of the first assay is RBL-2H3 cells. In kind it is cell-based, rat.
Conditions: not given
Here is the method:
RBL-2H3 cells (rat mucosal-type mast cell line) and P815 cells (mouse mast cell tumor cell line) were obtained from the BeNa Culture Collection (Xinyang, China). RBL-2H3 cells were cultured in DMEM (Gibco, Wuhan, China) supplemented with 15% FBS (Gibco), and P815 cells were maintained in RPMI 1640 basic medium supplemented with 10% FBS and antibiotics (100 mg/L streptomycin and 1 × 10^5 U/L penicillin) in a humidified atmosphere (5% CO2, 37 °C).
Degranulation was analyzed by measuring the release of the granule marker N-acetyl-D-glucosaminidase (β-hexosaminidase), which colocalizes with histamine, as described in [24]. For this, 2 × 10^5 P815 cells/mL or 1.5 × 10^5 RBL-2H3 cells/mL were seeded in 96-well cell culture plates. Twelve hours later, the cells were incubated with various concentrations of mastoparans dissolved in 100 μL HEPES buffer (137 mM NaCl, 2.7 mM KCl, 1 mM MgCl2, 1.8 mM CaCl2, 20 mM HEPES, 1 mg/mL BSA, and 1 mg/mL glucose, pH 7.4) for 15 min at 37 °C and 5% CO2. Then, the reactions were quenched by the addition of 0.15 mL of ice-cold HEPES buffer. After centrifugation, the supernatants were sampled for the β-hexosaminidase assay. Briefly, 50 μL samples of the cell culture supernatants and 50 μL of the substrate, 5 mM p-nitrophenyl-N-acetyl-b-D-glucosaminide (Sigma) in 0.2 M citrate, pH 4.5, were incubated in 96-well plates at 37 °C and 5% CO2 for 16–18 h to yield the chromophore p-nitrophenol, and the reactions were stopped by the addition of 100 μL of 0.2 M glycine solution, pH 10.7. The absorbance of the colored product was assessed at 405 nm using a microtiter plate reader. The values for β-hexosaminidase released in the medium are expressed as the percentage of total β-hexosaminidase, which was measured in the cells after lysis in 0.1% Triton X-100. The experiment was repeated three times, and the results represent the mean and standard deviation (SD) of quadruplicate tests. The percent degranulation was calculated according to the following equation:Degranulation Rate (%) = 100% × (Amastoparans − AHEPES)/(ATriton X-100 − AHEPES).
Statistical analysis was performed with GraphPad Prism software. The curve of mast cell degranulation induced by wasp mastoparans was generated in SigmaPlot 12.5 software, and the EC50 was calculated according to the following equation (Four-Parameter Logistic Curve): y = min + (max − min)/(1 + (x/EC50) […] Hillslope).
For the compound “INWLKLGKKVIDIL-NH2 [Protopolybia-MP III-7]”, the half-maximal effective concentration (EC50) (in general, the concentration at which the effect is half-maximal) is 25.2 ± 1.56 µM.
“INWLKLGKKVIAAL-NH2 [Protopolybia-MP III-6]” showed an EC50 of 69.1 ± 12.3 µM.
Consider “INWLKLGKKVSAAL-NH2 [Protopolybia-MP III-14]”, for which the EC50 is > 325 µM; the “EC50 (μg/mL), Protopolybia-MPIII and mutations” value is >500 µg/mL.
“INWLKLGKAVIAAL-NH2 [Protopolybia-MP III-3]” gave an EC50 of 15.3 ± 3.53 µM.
In the case of “INWLKLGKAVSDAL-NH2 [Protopolybia-MP III-2]”, the concentration for a half-maximal effect (EC50) is 193 ± 28.8 µM.
Still for that read-out and setting: the result for INWLKLGKAVIDAL-NH2 [Protopolybia-MPIII] reads 21.7 ± 3.44 µM; that for “INWLKLGKAVIDIL-NH2 [Protopolybia-MP III-4]”, 28.1 ± 3.71 µM; that for “INWLKLGKAVIAIL-NH2 [Protopolybia-MP III-10]”, 8.39 ± 0.93 µM.
On the same count and under the same terms, the result for “INWLKLGKKVIDAL-NH2 [Protopolybia-MP III-1]” reads 98.4 ± 8.43 µM.
With “INWLKLGKKVSDAL-NH2 [Protopolybia-MP III-5]”, the EC50 was > 325 µM; the “EC50 (μg/mL), Protopolybia-MPIII and mutations” value was >500 µg/mL.
“INWLKLGKKVSDIL-NH2 [Protopolybia-MP III-13]” had a concentration giving a half-maximal response (EC50) of 145 ± 24.4 µM.
On the same count and under the same terms, the result for “INWLKLGKKVIAIL-NH2 [Protopolybia-MP III-12]” reads 47.7 ± 14.1 µM.

Still in this assay, the particulars now being: mutants of Protopolybia-MPIII, Table 3.
In the case of “INWLKLGKKVSAAL-NH2 [Protopolybia-MP III-14]”, the “degranulation activity of mutant compared with Protopolybia-MPIII, in words” value is reported as “almost lost”.
Turning to “INWLKLGKKVSDAL-NH2 [Protopolybia-MP III-5]”, the “degranulation activity of mutant compared with Protopolybia-MPIII, in words” value is “almost lost”.

The assay is the same for the next values; noted with them: pH 7.4.
INWLKLGKKVSAIL-NH2 [Protopolybia-MPI] yielded an EC50 of 117 ± 38.3 µM.
The same measure, in the same setting: the result for IDWKKLLDAAKQIL-NH2 [Polybia-MPI] reads 23.2 ± 2.09 µM.
The same measure, in the same setting: the result for INWAKLGKLALQAL-NH2 [Ropalidia-MP] reads 33 ± 5.79 µM.
The same measure, in the same setting: the result for INLKAIAALVKKVL-NH2 [HR1] reads 48.8 ± 3.57 µM.
On to INLKVFAALVKKLL-NH2 [Mastoparan-T2], for which the response was half-maximal at 24.2 ± 7.89 µM (EC50).
As for INLFGFAALVKKFL-NH2 [Mastoparan-T4], the concentration giving a half-maximal response (EC50) was 18.2 ± 3.52 µM.
Compound FDLLGLVKSVVSAL-NH2 [EpVP2b] displayed a concentration giving a half-maximal response (EC50) of 25.9 ± 2.88 µM.
The same measure, in the same setting: the result for INWLKLGKMVIDAL-NH2 [Polybia-MPII] reads 6.79 ± 0.4 µM; that for INLKALAALVKKVL-NH2 [Mastoparan-II], 58.7 ± 24.8 µM; that for INWLKLGKAVIDAL-NH2 [Protopolybia-MPIII], 22.5 ± 2.96 µM.
Still for that read-out and setting: the result for INWKKIKSLIKAAMS-NH2 [MP-V2] reads 88.9 ± 61.3 µM.
On the same count and under the same terms, the result for INWKKIFQKVKNLV-NH2 [PDD-A] reads 65.8 ± 19.5 µM; that for INLKALLAVAKKIL-NH2 [Mastoparan-C], 32.6 ± 8.56 µM.
As for INWLKLGKAIIDAL-NH2 [Agelaia-MPI], the EC50 was 5.25 ± 0.87 µM.
Compound LNFKALAALAKKIL-NH2 [Pm-R2] yielded an EC50 of 94.8 ± 73.5 µM.
The compound LKLMGIVKKVLGAL-NH2 [MP-EM1] yielded an EC50 of 197 ± 164 µM.
For the compound INWLKLGKKMMSAL-NH2 [MP], the midpoint of the response, the EC50, lay at 66.8 ± 30.7 µM.
Compound VDWKKIGQHILSVL-NH2 [Mastoparan-J] displayed a 50% effective concentration (EC50) of 37.3 ± 5.13 µM.
Still for that read-out and setting: the result for FDVMGIIKKIASAL-NH2 [EMP-EF] reads 25.1 ± 1.59 µM; that for INWKALLDAAKKVL-NH2 [Protonectarina-MP], 46.4 ± 3.1 µM; that for IDWLKLGKMVMDVL-NH2 [Polybia-MPIII], 114 ± 59.3 µM.
The same measure, in the same setting: the result for INWKKIKSIIKAAMN-NH2 [MP-V1] reads 130 ± 46.6 µM; that for `CC[C@H](C)[C@H](NC(=O)[C@H](CC(=O)O)NC(=O)[C@@H](N)Cc1ccccc1)C(=O)N[C@@H](CCSC)C(=O)NCC(=O)N[C@@H](CC(C)C)C(=O)N[C@H](C(=O)N[C@@H](CCCCN)C(=O)N[C@@H](CCCCN)C(=O)N[C@H](C(=O)N[C@@H](C)C(=O)NCC(=O)N[C@@H](C)C(=O)N[C@@H](CC(C)C)C(N)=O)C(C)C)[C@@H](C)CC` [EMP-ER], 76.2 ± 5.81 µM; that for INWLKLGKQILGAL-NH2 [Pm-R3], 7.6 ± 0.76 µM.
